The record followed here is ChEMBL document CHEMBL5137068, “Discovery of Hexahydrofuro[3,2-b]furans as New Kinase-Selective and Orally Bioavailable JAK3 Inhibitors for the Treatment of Leukemia Harboring a JAK3 Activating Mutant” (J Med Chem, 2022).

The target of data set [1] is T1, Tyrosine-protein kinase JAK3 (Homo sapiens, UniProt P52333).
T1 sequence (P52333 whole entry): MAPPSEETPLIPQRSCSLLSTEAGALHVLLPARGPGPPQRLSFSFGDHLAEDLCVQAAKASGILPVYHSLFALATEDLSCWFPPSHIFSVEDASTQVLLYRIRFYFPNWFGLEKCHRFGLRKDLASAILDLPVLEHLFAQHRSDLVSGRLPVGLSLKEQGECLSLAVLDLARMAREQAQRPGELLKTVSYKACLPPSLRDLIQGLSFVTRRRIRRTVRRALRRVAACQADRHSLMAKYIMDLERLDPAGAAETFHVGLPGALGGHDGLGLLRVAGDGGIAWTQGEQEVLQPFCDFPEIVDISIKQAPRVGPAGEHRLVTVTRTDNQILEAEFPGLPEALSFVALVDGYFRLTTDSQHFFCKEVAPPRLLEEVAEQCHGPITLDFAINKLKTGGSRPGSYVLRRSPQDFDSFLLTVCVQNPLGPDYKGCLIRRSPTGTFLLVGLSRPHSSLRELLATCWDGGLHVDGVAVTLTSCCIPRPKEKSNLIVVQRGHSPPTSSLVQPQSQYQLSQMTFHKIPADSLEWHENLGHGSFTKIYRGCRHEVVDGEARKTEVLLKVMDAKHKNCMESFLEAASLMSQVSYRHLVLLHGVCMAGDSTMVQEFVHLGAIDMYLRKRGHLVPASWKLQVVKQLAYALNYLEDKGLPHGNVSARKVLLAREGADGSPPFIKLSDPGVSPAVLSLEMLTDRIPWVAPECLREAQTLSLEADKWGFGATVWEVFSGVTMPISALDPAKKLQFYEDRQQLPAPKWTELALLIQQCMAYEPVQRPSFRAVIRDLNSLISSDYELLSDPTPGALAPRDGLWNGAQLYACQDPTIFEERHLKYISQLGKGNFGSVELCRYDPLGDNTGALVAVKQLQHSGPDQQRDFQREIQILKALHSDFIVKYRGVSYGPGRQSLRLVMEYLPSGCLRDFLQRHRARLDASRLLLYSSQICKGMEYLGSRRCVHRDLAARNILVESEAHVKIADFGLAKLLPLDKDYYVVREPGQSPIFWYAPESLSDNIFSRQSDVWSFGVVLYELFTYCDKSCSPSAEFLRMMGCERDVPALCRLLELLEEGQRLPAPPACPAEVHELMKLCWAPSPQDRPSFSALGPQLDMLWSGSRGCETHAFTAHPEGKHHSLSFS
Description: Inhibition of GST tagged recombinant human JAK3 expressed in baculovirus infection system by FRET assay

The subject of data set [2] is BaF3. The experiment in a line: cells. The settings on record: Mus musculus, BaF3, 72 h.
Description: Antiproliferative activity against mouse BaF3 parent cell measured after 72 hrs by CCK-8 assay
Data set [3] deals with BaF3. Briefly: cells. The settings on record: Mus musculus, BaF3, 72 h. This is another data set of the same source.
Data set [4] relates to BaF3. The experiment in a line: cells. The following applies: Mus musculus, BaF3, 72 h. The source holds these as a separate data set.
The subject of data set [5] is BaF3. Briefly: cells. The following applies: Mus musculus, BaF3, 72 h. This is another data set of the same source.
In data set [6] the test system is U-937. Briefly: cells. The settings on record: Homo sapiens, U-937, 72 h.
Data set [7] can be described thus: Half life in 12 hr fasted SPF Sprague-Dawley rat at 5 mg/kg, iv upon 2 hrs fasting post-administration measured upto 24 hrs. The following applies: in vivo. In kind it is ADME, organism-based.
The nature of data set [8]: Clearance in 12 hr fasted SPF Sprague-Dawley rat at 5 mg/kg, iv upon 2 hrs fasting post-administration measured upto 24 hrs. In kind it is ADME, organism-based. The following applies: in vivo.
A short description of data set [9]: Cmax in 12 hr fasted SPF Sprague-Dawley rat at 5 mg/kg, iv upon 2 hrs fasting post-administration measured upto 24 hrs. In kind it is ADME, organism-based. Set-up: dose 5 mg/kg, time < 24 hrs, route iv. The following applies: in vivo.
A short description of data set [10]: AUC(0 to infinity) in 12 hr fasted SPF Sprague-Dawley rat at 15 mg/kg, po upon 2 hrs fasting post-administration upto 24 hrs. Type of data set: ADME, organism-based. The arrangement: dose 15 mg/kg, time < 24 hrs, route po. The settings on record: in vivo.
Data set [11] is described as follows: Oral bioavailability in 12 hr fasted SPF Sprague-Dawley rat at 15 mg/kg upon 2 hrs fasting post-administration measured upto 24 hrs. Type of data set: ADME, organism-based. The following applies: in vivo.
A short description of data set [12]: Cmax in 12 hr fasted SPF Sprague-Dawley rat at 15 mg/kg, po upon 2 hrs fasting post-administration measured upto 24 hrs. Set-up: time < 24 hrs, dose 15 mg/kg, route po. The following applies: in vivo. Type of data set: ADME, organism-based.
A short description of data set [13]: Metabolic stability in rat liver microsome assessed as half life preincubated for 5 mins followed by NADPH addition measured upto 45 mins by LC/MS analysis. The following applies: liver microsomes, time < 50 min. Type of data set: ADME. (In general: Liver microsomes are vesicles of endoplasmic reticulum, rich in cytochrome P450 enzymes.)
Data set [14] can be described thus: Half life in 12 hr fasted SPF Sprague-Dawley rat at 15 mg/kg, po upon 2 hrs fasting post-administration measured upto 24 hrs. The settings on record: in vivo. Type of data set: ADME, organism-based.
Data set [15] in a line: AUC(0 to infinity) in 12 hr fasted SPF Sprague-Dawley rat at 5 mg/kg, iv upon 2 hrs fasting post-administration measured upto 24 hrs. Set-up: dose 5 mg/kg, time < 24 hrs, route iv. The settings on record: in vivo. Type of data set: ADME, organism-based.
Data set [16] concerns the target Tyrosine-protein kinase JAK2 (Homo sapiens, UniProt O60674).
Description: Inhibition of GST tagged recombinant human JAK2 expressed in baculovirus infection system by FRET assay
The target in data set [17] is Non-receptor tyrosine-protein kinase TYK2 (Homo sapiens, UniProt P29597).
Description: Inhibition of human TYK2 by FRET assay
The target in data set [18] is Tyrosine-protein kinase JAK1 (Homo sapiens, UniProt P23458).
Sequence of Tyrosine-protein kinase JAK1 (P23458 whole entry): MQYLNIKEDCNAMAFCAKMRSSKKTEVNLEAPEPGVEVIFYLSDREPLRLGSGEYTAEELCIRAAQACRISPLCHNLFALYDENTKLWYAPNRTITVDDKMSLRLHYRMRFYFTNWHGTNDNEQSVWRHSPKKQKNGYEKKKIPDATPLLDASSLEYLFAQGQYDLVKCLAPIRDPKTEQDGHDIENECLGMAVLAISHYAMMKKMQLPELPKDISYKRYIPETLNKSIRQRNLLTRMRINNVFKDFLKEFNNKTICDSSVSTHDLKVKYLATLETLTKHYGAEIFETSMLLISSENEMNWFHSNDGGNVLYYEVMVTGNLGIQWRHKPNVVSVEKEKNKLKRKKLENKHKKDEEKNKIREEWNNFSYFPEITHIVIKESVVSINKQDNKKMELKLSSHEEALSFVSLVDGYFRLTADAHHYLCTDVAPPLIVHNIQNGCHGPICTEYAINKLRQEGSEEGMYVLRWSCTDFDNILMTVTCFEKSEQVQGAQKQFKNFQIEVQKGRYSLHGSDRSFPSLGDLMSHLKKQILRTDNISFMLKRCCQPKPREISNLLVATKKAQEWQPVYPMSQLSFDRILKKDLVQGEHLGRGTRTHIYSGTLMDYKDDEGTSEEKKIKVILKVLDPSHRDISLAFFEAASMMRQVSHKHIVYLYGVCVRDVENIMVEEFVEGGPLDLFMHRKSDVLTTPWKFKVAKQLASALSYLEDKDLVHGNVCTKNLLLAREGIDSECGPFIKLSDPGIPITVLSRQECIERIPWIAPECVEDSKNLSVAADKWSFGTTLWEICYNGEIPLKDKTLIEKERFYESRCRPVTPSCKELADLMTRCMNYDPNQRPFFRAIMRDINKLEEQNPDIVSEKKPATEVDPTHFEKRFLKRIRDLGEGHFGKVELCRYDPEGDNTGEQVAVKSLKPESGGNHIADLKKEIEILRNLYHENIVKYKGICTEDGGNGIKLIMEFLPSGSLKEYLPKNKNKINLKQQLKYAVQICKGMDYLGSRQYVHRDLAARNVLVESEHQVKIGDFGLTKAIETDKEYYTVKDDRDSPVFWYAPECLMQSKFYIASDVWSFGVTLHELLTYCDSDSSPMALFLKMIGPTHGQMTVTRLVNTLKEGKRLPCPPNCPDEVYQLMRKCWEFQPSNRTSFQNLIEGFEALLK

Sequence of Non-receptor tyrosine-protein kinase TYK2 (P29597 whole entry): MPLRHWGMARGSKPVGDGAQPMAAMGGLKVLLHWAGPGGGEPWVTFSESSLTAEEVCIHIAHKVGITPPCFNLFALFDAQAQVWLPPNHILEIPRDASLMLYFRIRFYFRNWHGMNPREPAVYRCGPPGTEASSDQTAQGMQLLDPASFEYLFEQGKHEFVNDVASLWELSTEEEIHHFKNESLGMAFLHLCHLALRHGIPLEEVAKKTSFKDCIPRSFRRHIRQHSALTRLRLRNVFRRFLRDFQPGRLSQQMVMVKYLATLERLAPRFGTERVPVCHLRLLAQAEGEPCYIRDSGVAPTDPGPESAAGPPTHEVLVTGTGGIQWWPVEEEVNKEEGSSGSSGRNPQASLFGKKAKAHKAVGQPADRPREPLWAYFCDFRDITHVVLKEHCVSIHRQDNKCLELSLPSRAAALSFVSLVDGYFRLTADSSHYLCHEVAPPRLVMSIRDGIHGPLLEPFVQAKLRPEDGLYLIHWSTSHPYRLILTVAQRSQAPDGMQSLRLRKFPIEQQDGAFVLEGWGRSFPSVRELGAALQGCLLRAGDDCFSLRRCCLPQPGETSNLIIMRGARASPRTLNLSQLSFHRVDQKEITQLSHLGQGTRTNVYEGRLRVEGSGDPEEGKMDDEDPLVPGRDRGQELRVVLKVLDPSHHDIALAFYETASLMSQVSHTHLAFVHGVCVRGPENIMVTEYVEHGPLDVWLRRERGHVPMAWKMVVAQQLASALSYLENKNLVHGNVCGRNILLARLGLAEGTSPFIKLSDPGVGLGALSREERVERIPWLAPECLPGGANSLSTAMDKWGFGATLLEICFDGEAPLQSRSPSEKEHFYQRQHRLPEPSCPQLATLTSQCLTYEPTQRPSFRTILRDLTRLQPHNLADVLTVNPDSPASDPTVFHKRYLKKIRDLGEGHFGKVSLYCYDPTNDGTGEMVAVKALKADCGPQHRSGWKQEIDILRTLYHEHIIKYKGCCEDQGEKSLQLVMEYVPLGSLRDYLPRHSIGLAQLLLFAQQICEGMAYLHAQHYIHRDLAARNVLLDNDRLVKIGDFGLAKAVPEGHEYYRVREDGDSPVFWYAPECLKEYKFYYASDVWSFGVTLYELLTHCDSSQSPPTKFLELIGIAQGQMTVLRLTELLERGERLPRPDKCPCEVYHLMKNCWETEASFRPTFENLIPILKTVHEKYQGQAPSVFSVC
Sequence of Tyrosine-protein kinase JAK2 (O60674 whole entry): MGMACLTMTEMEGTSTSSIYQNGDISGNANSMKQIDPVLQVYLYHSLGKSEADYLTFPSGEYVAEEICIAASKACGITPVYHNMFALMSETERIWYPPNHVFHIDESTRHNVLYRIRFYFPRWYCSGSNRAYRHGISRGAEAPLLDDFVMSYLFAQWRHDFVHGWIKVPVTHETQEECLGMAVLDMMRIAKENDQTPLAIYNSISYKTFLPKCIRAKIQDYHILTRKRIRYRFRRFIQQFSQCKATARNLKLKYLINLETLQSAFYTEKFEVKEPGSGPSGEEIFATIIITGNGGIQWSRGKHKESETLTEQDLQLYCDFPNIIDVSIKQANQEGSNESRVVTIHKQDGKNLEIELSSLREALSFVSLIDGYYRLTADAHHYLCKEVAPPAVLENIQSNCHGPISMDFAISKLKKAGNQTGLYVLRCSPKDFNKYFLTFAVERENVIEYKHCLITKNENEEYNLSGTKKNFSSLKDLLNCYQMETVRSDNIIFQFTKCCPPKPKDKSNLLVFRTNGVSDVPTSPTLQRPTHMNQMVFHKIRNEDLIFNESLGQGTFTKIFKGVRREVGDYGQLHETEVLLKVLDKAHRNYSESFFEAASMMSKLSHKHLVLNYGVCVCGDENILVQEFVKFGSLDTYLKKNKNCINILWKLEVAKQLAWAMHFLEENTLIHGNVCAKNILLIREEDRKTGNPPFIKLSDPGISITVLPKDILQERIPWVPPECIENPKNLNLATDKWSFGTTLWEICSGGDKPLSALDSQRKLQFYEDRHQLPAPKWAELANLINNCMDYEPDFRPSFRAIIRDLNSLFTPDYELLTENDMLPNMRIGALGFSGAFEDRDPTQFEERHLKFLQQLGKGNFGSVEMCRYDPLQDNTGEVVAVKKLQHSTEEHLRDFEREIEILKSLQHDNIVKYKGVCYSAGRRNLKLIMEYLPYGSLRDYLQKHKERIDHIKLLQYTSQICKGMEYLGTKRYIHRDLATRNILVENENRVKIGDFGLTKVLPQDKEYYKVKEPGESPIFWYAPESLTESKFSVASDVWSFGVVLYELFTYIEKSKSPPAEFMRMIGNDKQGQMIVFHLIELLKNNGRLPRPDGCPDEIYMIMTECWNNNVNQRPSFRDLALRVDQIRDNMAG

In the case of `C#CCCN(C)CCN(C)c1ccc(Nc2ncc(Cl)c(O[C@@H]3CO[C@H]4[C@@H]3OC[C@H]4OC)n2)cc1NC(=O)C=C`, the IC50 (as a rule, the point on the concentration scale where inhibition reaches its midpoint) in [1] was determined as 1.7 nM.

Take `C=CC(=O)Nc1cc(Nc2ncc(Cl)c(O[C@@H]3CO[C@H]4[C@@H]3OC[C@H]4O)n2)ccc1N1C[C@H]2C[C@@H]1CN2C`: half-maximal inhibition in data set [1] (IC50) required 1.5 nM.

Turning to `C=CC(=O)Nc1cc(Nc2ncc(Cl)c(O[C@@H]3CO[C@H]4[C@@H]3OC[C@H]4OCC)n2)ccc1N(C)CCN(C)C`, the IC50 in data set [2] is 161 nM; in data set [3] it was 313 nM; in data set [4], 137 nM; in [5], 108 nM; in data set [6], 30 nM.

`C=CC(=O)N1C[C@H](Nc2ncnc3[nH]ccc23)CC[C@@H]1C` [RITLECITINIB]: the half-inhibitory concentration (IC50) in data set [2] is > 10000 nM; in data set [3], > 10000 nM; in [4], > 10000 nM; in data set [5] it was 28.1 nM; in [6], 19.5 nM.

Consider `CN1CCN(C2CCN(c3ccc(Nc4ncc(Cl)c(O[C@@H]5CO[C@H]6[C@@H]5OC[C@H]6O)n4)cc3Cl)CC2)CC1`, for which the IC50 was 1380 nM in [2], > 10000 nM in [3], > 10000 nM in data set [4] and 1650 nM in data set [5].

Consider `C=CC(=O)Nc1cc(Nc2ncc(Cl)c(O[C@@H]3CO[C@H]4[C@@H]3OC[C@H]4O)n2)ccc1N1CCC(N(C)C)C1` (stereo partly drawn), for which inhibition in data set [1] was half-maximal at 1.9 nM (IC50).

As for `C=CC(=O)Nc1cc(Nc2ncc(Cl)c(O[C@@H]3CO[C@H]4[C@@H]3OC[C@H]4F)n2)ccc1N(C)CCN(C)C`, the IC50 is 519 nM in [2]; 1.3 nM in data set [1]; 461 nM in [3]; 416 nM in data set [4]; 46.4 nM in data set [5]; 50.3 nM in data set [6].

Turning to `C=CC(=O)Nc1cc(Nc2ncc(Cl)c(O[C@@H]3CO[C@H]4[C@@H]3OC[C@@H]4F)n2)ccc1N(C)CCN(C)C`, the 50% inhibitory concentration (IC50) was determined as 476 nM in data set [2]; 435 nM in [3]; 418 nM in data set [4]; 88.6 nM in data set [5]; 40.7 nM in data set [6].

`C=CC(=O)Nc1cc(Nc2ncc(Cl)c(O[C@@H]3CO[C@H]4[C@@H]3OC[C@H]4O)n2)ccc1N(C)CCN(C)C`: the half-life (usually the time in which the quantity being followed falls by half) in data set [7] is 48 min; in data set [14] it was 61.2 min. Moreover, the IC50 worked out at 102 nM in data set [2]; 133 nM in data set [3]; 149 nM in data set [4]; 24.9 nM in [5]; 15.2 nM in data set [6]. Besides, the CL in [8] is listed as 299.15%. Besides, the peak concentration (Cmax) (as a rule, the highest concentration seen after dosing) was 440 ng/mL in data set [9] and 79.1 ng/mL in data set [12]. Also, the results for the area under the curve AUC(0-inf) in data set [10] and in data set [15] were 105 ng·h/mL and 280 ng·h/mL, respectively. The bioavailability (commonly dose-corrected exposure relative to a reference, in per cent) in data set [11] amounted to 12.4%. Further, the half-life at […] in data set [13] worked out at 120 min.

As for `C=CC(=O)Nc1cc(Nc2ncc(Cl)c(O[C@@H]3CO[C@H]4[C@@H]3OC[C@H]4OC(C)C)n2)ccc1N(C)CCN(C)C`, the concentration for half-maximal inhibition (IC50) in data set [2] was determined as 205 nM; in [1], 1.3 nM; in [3], 336 nM; in data set [4], 166 nM; in data set [5] it was 179 nM; in [6], 44 nM.

As to `C=CC(=O)Nc1cccc(Nc2ncc(Cl)c(O[C@@H]3CO[C@H]4[C@@H]3OC[C@H]4O)n2)c1`, the IC50 in data set [1] was 1.2 nM; in data set [16], 1400 nM; in [17], 94 nM; in [18] it was 556 nM.

In [1], `C=CC(=O)Nc1cc(Nc2ncc(Cl)c(O[C@@H]3CO[C@H]4[C@@H]3OC[C@H]4O)n2)ccc1N1CCOCC1` yielded an IC50 of 1.6 nM.

`C=CC(=O)Nc1cc(Nc2ncc(Cl)c(O[C@@H]3CO[C@H]4[C@@H]3OCC4(F)F)n2)ccc1N(C)CCN(C)C`: the concentration for half-maximal inhibition (IC50) in [2] is 214 nM; in data set [1], 1.2 nM; in data set [3], 180 nM; in [4], 188 nM; in [5], 56.4 nM; in data set [6], 33.8 nM.

As for `C=CC(=O)Nc1cc(Nc2ncc(Cl)c(O[C@@H]3CO[C@H]4[C@@H]3OC[C@H]4O)n2)ccc1N1CCC(N2CCN(C)CC2)CC1`, the half-inhibitory concentration (IC50) in data set [2] was 40.4 nM; in data set [1] it was 1.8 nM; in data set [3], 122 nM; in [4], 46.3 nM; in data set [16] it was 1030 nM; in [5], 20.1 nM. The concentration for half-maximal inhibition (IC50) in data set [17] turned out to be 369 nM; in data set [6] it was 35.9 nM; in data set [18], 1540 nM.
